From patent US12344600B2, “c-Myc mRNA translation modulators and uses thereof in the treatment of cancer” (Anima Biotech Inc., priority 2022, dated 2025)

System: c-Myc
Experiment: c-Myc immunofluorescence assay
Format: cell-based, human
Conditions: A549 cells, 24 hours, anti-c-Myc immunofluorescence
Experimental: A549 human non-small cell lung carcinoma cells were treated for 24 hours with increasing compound concentration, cells were fixed and stained with a nuclei stain (DAPI) and anti-c-Myc fluorescent antibody. The c-Myc signal was quantified by image analysis, and data was exported and analyzed using TIBCO Spotfire® (TIBCO Corporation). Dose response curves were generated and fitted with logaristic regression to calculate potency (EC50 values). Potency values are presented in Table 2 for all compounds and are shown for selected compounds (FIG. 3).
A549 cells were grown in 384-wells plates (Perkin Elmer, Cat. 6057300) for 48 hours, treated with compounds and then fixed for 20 min in 4% paraformaldehyde. After that permeabilization was done using 0.1% Triton X-100 in PBS for 20 min. Primary anti-c-Myc antibody (Abcam, ab32072) staining was performed for 90 min at room temperature. Cells then were washed twice with PBS and incubated with secondary antibody (Abcam, ab150075) for 90 min at room temperature. Nuclei were stained with DAPI for 10 min and washed twice with PBS.
Cell images were taken with Operetta (Perkin Elmer, USA), a wide-field fluorescence microscope at 20× magnification. After acquisition, the images were transferred to Columbus software (Perkin-Elmer) for image analysis. In Columbus, cells were identified by their nucleus, using the “Find Nuceli” module and cytoplasm was detected based on the secondary antibody channel. Subsequently, the fluorescent signal was enumerated in the identified cell region. Then data was exported to a data analysis and visualization software, Tibco Spotfire, USA.

| Compound | Myc Efficacy (−LogEC50) |
| --- | --- |
| CCCNC(=O)C1CCN(c2nc(-c3ccc(OC)cc3)no2)CC1 [Compound 127, 1-(3-(4-methoxyphenyl)-1,2,4-oxadiazol-5-yl)-N-propylpiperidine-4-carboxamide] | + (+ >3 and <5) |
| COc1ccc(-c2noc(N3CCC(C(=O)NCCc4ccccc4)CC3)n2)cc1 [Compound 128, 1-(3-(4-methoxyphenyl)-1,2,4-oxadiazol-5-yl)-N-phenethylpiperidine-4-carboxamide] | + (+ >3 and <5) |
| COc1ccc(-c2noc(N3CCC(C(=O)NCCCc4ccccc4)CC3)n2)cc1 [Compound 129, 1-(3-(4-methoxyphenyl)-1,2,4-oxadiazol-5-yl)-N-(3-phenylpropyl)piperidine-4-carboxamide] | + (+ >3 and <5) |
| COc1ccc(-c2noc(N3CCC(C(=O)NCCCN(C)c4ccccc4)CC3)n2)cc1 [Compound 130, 1-(3-(4-methoxyphenyl)-1,2,4-oxadiazol-5-yl)-N-(3-(methyl(phenyl)amino)propyl)piperidine-4-carboxamide] | + (+ >3 and <5) |
| O=C(C1CCN(c2nc(-c3ccccc3)no2)CC1)N1CCN(Cc2ccccc2)CC1 [Compound 131, (4-benzylpiperazin-1-yl)(1-(3-phenyl-1,2,4-oxadiazol-5-yl)piperidin-4-yl)methanone] | + (+ >3 and <5) |
| CC1CCCN(CCCNC(=O)C2CCN(c3nc(-c4ccc(Cl)cc4)no3)CC2)C1 (centres unmarked) [Compound 132, 1-(3-(4-chlorophenyl)-1,2,4-oxadiazol-5-yl)-N-(3-(3-methylpiperidin-1-yl)propyl)piperidine-4-carboxamide] | + (+ >3 and <5) |
| COc1ccc(CNC(=O)C2CCN(c3nc(-c4ccc(C(C)C)cc4)no3)CC2)cc1 [Compound 133, 1-(3-(4-isopropylphenyl)-1,2,4-oxadiazol-5-yl)-N-(4-methoxybenzyl)piperidine-4-carboxamide] | + (+ >3 and <5) |
| COc1ccc(-c2noc(N3CCC(C(=O)N4CCC(OC)CC4)CC3)n2)cc1 [Compound 134, (1-(3-(4-methoxyphenyl)-1,2,4-oxadiazol-5-yl)piperidin-4-yl)(4-methoxypiperidin-1-yl)methanone] | + (+ >3 and <5) |
| COc1ccc(-c2noc(N3CCC(Oc4ccccc4)CC3)n2)cc1 [Compound 135, 3-(4-methoxyphenyl)-5-(4-phenoxypiperidin-1-yl)-1,2,4-oxadiazole] | − (− ≤3) |
| COc1ccc(-c2noc(N3CCC(c4ccccc4)CC3)n2)cc1 [Compound 136, 3-(4-methoxyphenyl)-5-(4-phenylpiperidin-1-yl)-1,2,4-oxadiazole] | − (− ≤3) |
| CNC(=O)C1CCN(c2nc(-c3ccc(OC)cc3)no2)CC1 [Compound 137, 1-(3-(4-methoxyphenyl)-1,2,4-oxadiazol-5-yl)-N-methylpiperidine-4-carboxamide] | + (+ >3 and <5) |
| COc1ccc(-c2noc(N3CCNCC3)n2)cc1 [Compound 138, 3-(4-methoxyphenyl)-5-(piperazin-1-yl)-1,2,4-oxadiazole] | + (+ >3 and <5) |
| COc1ccc(-c2noc(N3CCC(C(=O)N4CCOCC4)CC3)n2)cc1 [Compound 139, (1-(3-(4-methoxyphenyl)-1,2,4-oxadiazol-5-yl)piperidin-4-yl)(morpholino)methanone] | + (+ >3 and <5) |
| COc1ccc(-c2noc(N3CCC(C(=O)NCCCN4CCC(C)CC4)CC3)n2)cc1 [Compound 140, 1-(3-(4-methoxyphenyl)-1,2,4-oxadiazol-5-yl)-N-(3-(4-methylpiperidin-1-yl)propyl)piperidine-4-carboxamide] | + (+ >3 and <5) |
| COc1ccc(-c2noc(N3CCC(C(=O)NCCCN4CCC[C@H](C)C4)CC3)n2)cc1 [Compound 141, (S)-1-(3-(4-methoxyphenyl)-1,2,4-oxadiazol-5-yl)-N-(3-(3-methylpiperidin-1-yl)propyl)piperidine-4-carboxamide] | − (− ≤3) |
| COc1ccc(-c2noc(N3CCC(C(=O)NCCCN4CCC[C@@H](C)C4)CC3)n2)cc1 [Compound 142, (R)-1-(3-(4-methoxyphenyl)-1,2,4-oxadiazol-5-yl)-N-(3-(3-methylpiperidin-1-yl)propyl)piperidine-4-carboxamide] | + (+ >3 and <5) |
| COc1ccc(-c2noc(N3CCC(C(=O)Nc4ccccc4)CC3)n2)cc1 [Compound 143, 1-(3-(4-methoxyphenyl)-1,2,4-oxadiazol-5-yl)-N-phenylpiperidine-4-carboxamide] | ++ (++ ≥5 and <6) |
| COc1ccc(-c2noc(N3CCN(C(=O)N4CCOCC4)CC3)n2)cc1 [Compound 144, (4-(3-(4-methoxyphenyl)-1,2,4-oxadiazol-5-yl)piperazin-1-yl)(morpholino)methanone] | + (+ >3 and <5) |
| COc1ccc(-c2noc(N3CCN(C(=O)N4CCC(C)CC4)CC3)n2)cc1 [Compound 145, (4-(3-(4-methoxyphenyl)-1,2,4-oxadiazol-5-yl)piperazin-1-yl)(4-methylpiperidin-1-yl)methanone] | + (+ >3 and <5) |
| COc1ccc(-c2noc(N3CCN(C(=O)N4CCS(=O)(=O)CC4)CC3)n2)cc1 [Compound 146, (1,1-dioxidothiomorpholino)(4-(3-(4-methoxyphenyl)-1,2,4-oxadiazol-5-yl)piperazin-1-yl)methanone] | + (+ >3 and <5) |
| COc1ccc(-c2noc(N3CCN(C(C)=O)CC3)n2)cc1 [Compound 147, 1-(4-(3-(4-methoxyphenyl)-1,2,4-oxadiazol-5-yl)piperazin-1-yl)ethan-1-one] | + (+ >3 and <5) |
| COc1ccc(-c2noc(N3CCN(C(=O)C4CCOCC4)CC3)n2)cc1 [Compound 148, (4-(3-(4-methoxyphenyl)-1,2,4-oxadiazol-5-yl)piperazin-1-yl)(tetrahydro-2H-pyran-4-yl)methanone] | + (+ >3 and <5) |
| COc1ccc(-c2noc(CCC(=O)NC[C@H]3CCN(Cc4ccc(C)cc4)C3)n2)cc1 [Compound 149, (R)-3-(3-(4-methoxyphenyl)-1,2,4-oxadiazol-5-yl)-N-((1-(4-methylbenzyl)pyrrolidin-3-yl)methyl)propanamide] | ++ (++ ≥5 and <6) |
| COc1ccc(-c2noc(CCC(=O)NC[C@@H]3CCN(Cc4ccc(C)cc4)C3)n2)cc1 [Compound 150, (S)-3-(3-(4-methoxyphenyl)-1,2,4-oxadiazol-5-yl)-N-((1-(4-methylbenzyl)pyrrolidin-3-yl)methyl)propanamide] | ++ (++ ≥5 and <6) |
| COc1ccc(-c2noc(CCC(=O)NCCCN3CCC(Cc4ccccc4)CC3)n2)cc1 [Compound 151, N-(3-(4-benzylpiperidin-1-yl)propyl)-3-(3-(4-methoxyphenyl)-1,2,4-oxadiazol-5-yl)propanamide] | ++ (++ ≥5 and <6) |
| COc1ccc(-c2noc(N3CCC(C(=O)NCCCN4CCC(Cc5ccccc5)CC4)CC3)n2)cc1 [Compound 152, N-(3-(4-benzylpiperidin-1-yl)propyl)-1-(3-(4-methoxyphenyl)-1,2,4-oxadiazol-5-yl)piperidine-4-carboxamide] | +++ (+++ ≥6) |
